Data from PubChem BioAssay (NCI).
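Interpolation was linear, between the two tested concentrations surrounding the appropriate level; five concentrations were tested over 48 hours in 96-well plates. Definition used: TGI = concentration required for complete inhibition of growth.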

Tests used:
Assay in all cases: NCI-60 cell line screen, 48 h
HOP-92 NSCLC = system: HOP-92 NSCLC
M19-MEL melanoma = system: M19-MEL melanoma
786-0 renal = system: 786-0 renal
DLD-1 colon = system: DLD-1 colon
CCRF-CEM leukemia = system: CCRF-CEM leukemia
EKVX NSCLC = system: EKVX NSCLC
NCI-H522 lung = system: NCI-H522 lung
ACHN renal = system: ACHN renal
XF 498 CNS = system: XF 498 CNS
SNB-78 CNS = system: SNB-78 CNS
DMS 273 small cell lung = system: DMS 273 small cell lung
KM20L2 colon = system: KM20L2 colon
DMS 114 small cell lung = system: DMS 114 small cell lung
LXFL 529 NSCLC = system: LXFL 529 NSCLC
SR leukemia = system: SR leukemia

Row | SMILES | TGI (HOP-92 NSCLC) | TGI (M19-MEL melanoma) | TGI (786-0 renal) | TGI (DLD-1 colon) | TGI (CCRF-CEM leukemia) | TGI (EKVX NSCLC) | TGI (NCI-H522 lung) | TGI (ACHN renal) | TGI (XF 498 CNS) | TGI (SNB-78 CNS) | TGI (DMS 273 small cell lung) | TGI (KM20L2 colon) | TGI (DMS 114 small cell lung) | TGI (LXFL 529 NSCLC) | TGI (SR leukemia)
1 | O=C(O)C(Cc1cnc[nH]1)N=Cc1nc(-c2ccccc2)oc1O (stereo not drawn) | > 100 µM | > 100 µM | > 100 µM | > 100 µM | > 100 µM | > 100 µM | > 100 µM | > 100 µM | > 100 µM | > 100 µM | > 100 µM | > 100 µM | > 100 µM | > 100 µM | > 100 µM
2 | O=c1[nH]c(=O)n(C2CC(O)C(CO)O2)cc1C#Cc1cc(C(F)(F)F)cc(C(F)(F)F)c1 (stereo not drawn) | > 100 µM | > 74 µM | > 100 µM | > 100 µM | > 100 µM | > 100 µM | > 81.5 µM | > 100 µM | > 86.6 µM | > 100 µM | > 93.6 µM | > 100 µM | > 100 µM | > 100 µM | > 100 µM
3 | CC(C)C(Sc1nc(-c2ccccc2)c(-c2ccccc2)[nH]1)C(=O)N/N=C/c1ccc([N+](=O)[O-])cc1 (stereo not drawn) | 35.4 µM | 23.8 µM | 32.1 µM | > 100 µM | 28.2 µM | 65.6 µM | 32.4 µM | > 100 µM | 41 µM | > 100 µM | 27.5 µM | 32.9 µM | 68.2 µM | 33.8 µM | 33.6 µM
4 | NC(CCCCN=Cc1nc(-c2ccccc2)oc1O)C(=O)O (stereo not drawn) | > 100 µM | > 100 µM | > 100 µM | > 100 µM | > 100 µM | > 100 µM | > 100 µM | > 100 µM | > 100 µM | > 100 µM | > 100 µM | > 100 µM | > 100 µM | > 100 µM | > 100 µM
5 | COc1ccc2c[n+](C)c3c4cc(OC)c(OC)cc4ccc3c2c1 | 35.3 µM | 25.6 µM | 15.5 µM | 42.2 µM | 31.2 µM | 54.7 µM | 7.5 µM | > 92.5 µM | 22.1 µM | 33.5 µM | 12.5 µM | 29.7 µM | 4.16 µM | 12 µM | 14.4 µM
6 | C=C(CN(C)C)C(=O)c1cc(C)ccc1C | 8.2 µM | 19.6 µM | 11.4 µM | 7.47 µM | 1.37 µM | 55.3 µM | 1.52 µM | 11.8 µM | 33 µM | 81.5 µM | 39.3 µM | 61.2 µM | 21.4 µM | 5.42 µM | 6.63 µM
7 | Cc1cc(NS(=O)(=O)c2ccc(NC(=O)c3cccc4cc5ccccc5nc34)cc2)no1 |  | 74.3 µM | 32.6 µM | 52.1 µM | 54.3 µM | 90.9 µM | 33.8 µM | 29.8 µM | 33.6 µM | 69.6 µM | 32.4 µM | 75.1 µM | 49.2 µM | 31.5 µM | 
